Assay results: PMC8129988 (Inorganic Chemistry Frontiers, 2021)

How the values were obtained:
UM-UC-14 cells = experiment: ligand release by UV fluorescence microscopy; type: cell-based, human; settings: 10 μM, 24 h, UM-UC-14, fluorescence microscopy
Method: The enhanced stability of Co(acac)2LPon under normoxia and its hypoxia-induced ligand release was subsequently confirmed by fluorescence microscopy. Fluorescence intensities indicated a ∼2.8-fold decreased stability of the cobalt(III) complex under hypoxic vs. normoxic cell culture conditions.
UM-UC-14 cells were seeded (2.5 × 10^5 cells per well) in 12-well plates and after 24 h recovery treated with 10 μM of compounds. After 24 h incubation, the drug solutions were removed, cells were washed with PBS and microphotographs of the different treatments were taken using UV fluorescence microscopy (Nikon Eclipse Ti2 microscope with a DAPI filter and a high-pressure mercury lamp) and a 20× objective. The level of cellular fluorescence was determined from fluorescence microscopy images using ImageJ software.
Figure S9: Ligand release of Co(acac)2LPon under normoxic and hypoxic cell culture conditions in comparison to LPon using UV fluorescence microscopy. UM-UC-14 cells were incubated with 10 µM of compounds for 24 h. Images of the different treatments were taken by UV fluorescence microcopy (20X objective) and the corrected total cell fluorescence was evaluated using ImageJ software. Data in Figure S9B are given as means ± SD of ten analyzed microphotographs per compound. Statistical significance was calculated by unpaired t test with p < .05(*). […]

[1] = system: p-ERK1/2 and p-S6 in K-562 cells; experiment: western blot of downstream signalling, 12 h; type: cell-based, human; settings: hypoxic conditions, K-562, 12 h
Method: Fig. 10 Impact of the cobalt(III) complexes on the ERK1/2 and S6 under normoxic and hypoxic conditions. K-562 cells were treated with the compounds, after 12 h cell lysates were prepared and protein expression as well as phosphorylation levels of downstream pathways (p-ERK1/2 and p-S6) analyzed by western blotting. One representative experiment out of three is shown. The ratio of phosphorylated to total protein is given between the respective lanes.
K-562 cells were plated (5 × 10^5 cells per well) in 6-well plates and allowed to recover for 24 h. Subsequently, the cells were treated with the drugs in different concentrations. After 12 h cells were harvested, proteins were isolated, resolved by sodium dodecyl sulfate polyacrylamide gel electrophoresis (SDS/PAGE), and transferred onto a polyvinylidene difluoride membrane for western blotting. The following antibodies were used: ERK1/2 (p44/42) rabbit monoclonal antibody (mAb) (137F5, #4695), phospho-ERK1/2 rabbit mAb (Thr202/Tyr204) (20G11, #4376), phospho-S6 rabbit pAb (Ser240/244, #2215) (Cell Signaling Technology, Beverly, MA, USA), S6 mouse mAb (C-8. #sc-74459) (Santa Cruz Biotechnology, TX, USA) and β-actin mouse mAb (#A5441, Sigma). All primary antibodies were used in 1 : 1000 dilutions (in Tris-buffered saline containing 0.1% Tween20 (TBST) + 3% bovine serum albumin (BSA)). Secondary goat anti-mouse-IgG (Fc specific)-peroxidase antibody (#A0168, Sigma) and horseradish peroxidase(HRP)-labeled mouse anti-rabbit IgG (#sc-2357, Santa Cruz Biotechnology) were used at working dilutions of 1 : 10 000 (in TBST + 1% BSA).

## CC(=O)C=C(C)[O-].CC(=O)C=C(C)[O-].Cc1ccc(C(=O)Nc2ccc(CNCCN)c(C(F)(F)F)c2)cc1C#Cc1cnc2cccnn12.O=C(O)C(F)(F)F.[Co+3] [Co(acac)2LPon, Bis(2,4-pentanedionato)N-(4-(((2-aminoethyl)amino)methyl)-3-(trifluoromethyl)phenyl)-3-(imidazo[1,2-b]pyridazin-3-ylethynyl)-4-methylbenzamide cobalt(III) 2,2,2-trifluoroacetate]
UM-UC-14 cells
  fluorescence intensity change (decreased stability) hypoxic vs. normoxic: ~2.8 fold
[1]
  activity on S6 phosphorylation compared with ponatinib: equally active as compared to ponatinib
